Experimental data reported in US6689806B1, “Indolinone compounds as kinase inhibitors” (Sugen, Inc., priority 1999, dated 2004).
Read-outs that look alike come from different tables or passages of the source.

What was measured:
Her2 = target: T1, Her2 (Homo sapiens, UniProt P04626); assay: HER-2 ELISA: EGF receptor-HER2 chimeric receptor assay in whole cells (HER2 kinase); assay type: cell-based; settings: NIH3T3 cells with EGFR/HER2 chimeric receptor, phosphotyrosine ELISA
T1 construct: fused on or other part: P00533 (Epidermal growth factor receptor)
T1 sequence (P04626 676-1255 limits assumed): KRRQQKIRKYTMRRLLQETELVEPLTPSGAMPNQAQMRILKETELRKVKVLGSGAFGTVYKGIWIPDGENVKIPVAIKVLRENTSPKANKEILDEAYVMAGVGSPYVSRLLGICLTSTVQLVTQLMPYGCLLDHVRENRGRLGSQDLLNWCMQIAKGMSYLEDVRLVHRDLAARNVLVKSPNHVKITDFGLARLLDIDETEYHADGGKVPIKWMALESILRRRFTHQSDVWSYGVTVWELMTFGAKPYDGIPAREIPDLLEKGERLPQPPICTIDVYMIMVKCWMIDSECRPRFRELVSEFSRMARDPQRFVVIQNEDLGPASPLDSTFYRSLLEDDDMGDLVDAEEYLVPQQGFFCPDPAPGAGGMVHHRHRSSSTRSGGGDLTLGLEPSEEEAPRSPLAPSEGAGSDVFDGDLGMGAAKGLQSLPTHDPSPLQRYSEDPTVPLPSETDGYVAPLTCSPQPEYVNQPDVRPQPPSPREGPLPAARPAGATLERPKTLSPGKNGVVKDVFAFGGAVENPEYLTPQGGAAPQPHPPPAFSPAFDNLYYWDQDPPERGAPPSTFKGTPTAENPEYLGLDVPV
Description: Assay 1: EGF Receptor-HER2 Chimeric Receptor Assay In Whole Cells.
HER2 kinase activity in whole EGFR-NIH3T3 cells was measured as described below:
1. An NIH3T3 cell line overexpressing a chimeric receptor containing the EGFR extracellular domain and intracellular HER2 kinase domain can be used for this assay.
3. Resuspend cells in seeding medium (DMEM, 0.5% bovine serum), and count the cells using trypan blue. Viability above 90% is acceptable. Seed cells in DMEM medium (0.5% bovine serum) at a density of 10,000 cells per well, 100 μL per well, in a 96 well microtiter plate. Incubate seeded cells in 5% CO2 at 37° C. for about 40 hours.
1. Check seeded cells for contamination using an inverted microscope. Dilute drug stock (10 mg/mL in DMSO) 1:10 in DMEM medium, then transfer 5 μL to a TBST well for a final drug dilution of 1:200 and a final DMSO concentration of 1%. Control wells receive DMSO alone. Incubate in 5% CO2 at 37° C. for two hours.
2. Prepare EGF ligand: dilute stock EGF in DMEM so that upon transfer of 10 μL dilute EGF (1:12 dilution), 100 nM final concentration is attained.
4. After 120 minutes incubation with drug, add prepared […] ligand to cells, 10 μL per well, to a final concentration of 100 nM. Control wells receive DMEM alone. Incubate, shaking, at room temperature, for 5 minutes.
5. Remove drug, EGF, and DMEM. Wash cells twice with PBS. Transfer HNTG* to cells, 100 μL per well. Place on ice for 5 minutes. Meanwhile, remove blocking buffer from other ELISA plate and wash with TBST as described above.
6. With a pipette tip securely fitted to a micropipettor, scrape cells from plate and homogenize cell material by repeatedly aspirating and dispensing the HNTG* lysis buffer. Transfer lysate to a coated, blocked, and washed ELISA plate. Incubate shaking at room temperature for one hour.
7. Remove lysate and wash 4 times with TBST. Transfer freshly diluted anti-Ptyr antibody to ELISA plate at 100 μL per well. Incubate shaking at room temperature for 30 minutes in the presence of the anti-Ptyr antiserum (1:3000 dilution in TBST).
8. Remove the anti-Ptyr antibody and wash 4 times with TBST. Transfer the freshly diluted TAGO anti-rabbit IgG antibody to the ELISA plate at 100 μL per well. Incubate shaking at room temperature for 30 minutes (anti-rabbit IgG antibody: 1:3000 dilution in TBST).
9. Remove TAGO detection antibody and wash 4 times with TBST. Transfer freshly prepared ABTS/H2O2 solution to ELISA plate, 100 μL per well. Incubate shaking at room temperature for 20 minutes. (ABTS/H2O2 solution: 1.0 μL 30% H2O2 in 10 mL ABTS stock).
10. Stop reaction by adding 50 μL 5N H2SO4 (optional), and determine O.D. at 410 nm.
11. The maximal phosphotyrosine signal is determined by subtracting the value of the negative controls from the positive controls. The percent inhibition of phosphotyrosine content for extract-containing wells is then calculated, after subtraction of the negative controls.

PDGFR = PDGFR (Homo sapiens, UniProt P09619); assay: Biochemical PDGFR assay (ELISA); set-up: expressed in transfected cells; host or cells: NIH 3T3
PDGFR, sequence (P09619 33-1106): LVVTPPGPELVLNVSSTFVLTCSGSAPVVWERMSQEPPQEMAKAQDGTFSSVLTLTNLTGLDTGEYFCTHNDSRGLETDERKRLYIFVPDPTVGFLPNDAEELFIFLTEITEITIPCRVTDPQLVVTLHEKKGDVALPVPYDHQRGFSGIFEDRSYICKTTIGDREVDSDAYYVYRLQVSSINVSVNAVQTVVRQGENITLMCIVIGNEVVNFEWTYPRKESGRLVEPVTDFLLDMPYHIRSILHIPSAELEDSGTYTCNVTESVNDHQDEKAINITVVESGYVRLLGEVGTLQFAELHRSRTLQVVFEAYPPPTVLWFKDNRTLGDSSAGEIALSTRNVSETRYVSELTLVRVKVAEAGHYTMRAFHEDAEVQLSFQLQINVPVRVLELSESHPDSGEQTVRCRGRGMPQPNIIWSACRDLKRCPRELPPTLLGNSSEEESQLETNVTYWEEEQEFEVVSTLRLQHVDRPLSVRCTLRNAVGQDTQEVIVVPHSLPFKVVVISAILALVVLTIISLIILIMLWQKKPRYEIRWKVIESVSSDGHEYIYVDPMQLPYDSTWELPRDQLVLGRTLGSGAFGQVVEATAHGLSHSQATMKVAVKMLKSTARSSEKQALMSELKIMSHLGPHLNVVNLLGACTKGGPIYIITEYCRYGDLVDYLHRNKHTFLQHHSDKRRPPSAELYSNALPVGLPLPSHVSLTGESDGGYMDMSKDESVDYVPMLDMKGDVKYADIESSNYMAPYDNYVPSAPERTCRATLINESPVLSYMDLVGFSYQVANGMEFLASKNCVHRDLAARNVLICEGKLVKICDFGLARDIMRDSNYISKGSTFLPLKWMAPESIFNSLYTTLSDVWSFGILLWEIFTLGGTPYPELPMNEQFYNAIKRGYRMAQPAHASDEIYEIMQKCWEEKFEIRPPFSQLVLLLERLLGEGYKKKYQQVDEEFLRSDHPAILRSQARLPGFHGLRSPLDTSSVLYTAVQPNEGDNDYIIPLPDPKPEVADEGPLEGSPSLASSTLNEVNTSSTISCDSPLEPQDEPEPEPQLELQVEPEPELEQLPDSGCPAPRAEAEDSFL
Description: This assay measures the in vitro kinase activity of PDGFR using ELISA.
6. PDGFR-β expressing NlH 3T3 cell lysate.
1. Coat Corning 96 well ELISA plates with 0.5 μg 28D4C10 in 100 μL PBS per well, store overnight at 4° C.
5. Dilute lysate in HNTG (10 μg lysate/100 μL HNTG)
(§1) 6. Add 100 μL of diluted lysate to each well. Shake at room temperature for 60 min.
8. Add 80 μL working kinase buffer mix to ELISA plate containing captured PDGFR.
9. Dilute test compound 1:10 in TBS in 96-well polypropylene plates (i.e., 10 μL compound+90 μL TBS).
10. Add 10 μL diluted test compound to ELISA plate.
11. Incubate for 30 minutes while shaking at room temperature.
12. Add 10 μL ATP directly to all wells except negative control well (final well volume should be approximately 100 μL with 20 μM ATP in each well.) Incubate 30 minutes while shaking.
13. After 30 minutes, stop reaction by adding 10 μL of 200 mM EDTA (pH 8.0) to each well.
(§2) 15. Add 100 μL anti-phosphotyrosine (1:3000 dilution in TBST) per well. Incubate 30-45 min. at room temperature, with shaking.
(§3) 17. Add 100 μL Biosource Goat anti-rabbit IgG peroxidase conjugate (1:2000 dilution in TBST) to each well. Incubate 30 min. at room temperature, with shaking.
(§4) 19. Add 100 μL of ABTS/H2O2 solution to each well.
22. Read assay on Dynatech MR7000 ELISA reader: test filter: 410 nM, reference filter: 630 nM.

EGFR = EGFR (Homo sapiens, UniProt P00533); assay: Biochemical EGFR assay (ELISA); set-up: A431 cell lysate; endogenous in cells; host or cells: A431
EGFR, sequence (P00533 25-1210): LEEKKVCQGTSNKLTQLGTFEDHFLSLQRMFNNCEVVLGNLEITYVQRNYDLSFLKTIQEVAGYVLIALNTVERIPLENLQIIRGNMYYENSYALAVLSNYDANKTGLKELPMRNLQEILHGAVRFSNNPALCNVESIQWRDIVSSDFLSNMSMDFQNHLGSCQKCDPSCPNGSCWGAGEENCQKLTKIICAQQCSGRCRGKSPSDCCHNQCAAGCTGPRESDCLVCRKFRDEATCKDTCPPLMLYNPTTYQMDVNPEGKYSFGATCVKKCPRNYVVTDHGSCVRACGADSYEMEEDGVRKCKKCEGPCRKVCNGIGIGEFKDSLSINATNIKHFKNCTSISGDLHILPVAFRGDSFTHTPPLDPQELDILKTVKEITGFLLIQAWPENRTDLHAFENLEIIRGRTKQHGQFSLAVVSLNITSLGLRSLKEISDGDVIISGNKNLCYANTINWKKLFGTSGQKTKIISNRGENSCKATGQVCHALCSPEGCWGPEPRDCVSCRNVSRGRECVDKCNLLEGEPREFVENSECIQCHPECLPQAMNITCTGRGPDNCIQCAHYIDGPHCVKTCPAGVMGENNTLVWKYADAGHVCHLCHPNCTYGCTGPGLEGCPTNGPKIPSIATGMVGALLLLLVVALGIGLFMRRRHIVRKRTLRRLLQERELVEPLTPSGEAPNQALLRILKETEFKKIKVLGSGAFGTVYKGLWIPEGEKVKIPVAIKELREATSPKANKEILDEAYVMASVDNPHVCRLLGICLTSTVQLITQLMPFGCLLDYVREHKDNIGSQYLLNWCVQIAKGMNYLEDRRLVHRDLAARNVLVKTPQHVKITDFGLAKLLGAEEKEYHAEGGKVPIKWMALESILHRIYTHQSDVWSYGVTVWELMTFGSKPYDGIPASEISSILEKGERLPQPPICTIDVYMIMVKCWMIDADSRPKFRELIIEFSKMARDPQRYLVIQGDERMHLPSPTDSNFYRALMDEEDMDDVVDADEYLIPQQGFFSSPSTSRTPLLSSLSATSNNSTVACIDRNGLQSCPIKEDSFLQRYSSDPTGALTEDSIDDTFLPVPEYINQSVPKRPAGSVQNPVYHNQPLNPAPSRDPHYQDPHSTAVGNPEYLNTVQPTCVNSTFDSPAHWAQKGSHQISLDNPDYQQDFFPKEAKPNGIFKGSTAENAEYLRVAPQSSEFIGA
Description: This assay measures the in vitro kinase activity of EGFR using ELISA.
1. Coat Coming 96 well ELISA plates with 0.5 μg SUMOl in 100 μL PBS per well, store overnight at 4° C.
5. Dilute lysate in PBS (7 μg lysate/100 μL PBS).
as §1
8. Add 120 μL TBS to ELISA plate containing captured EGFR.
9. Dilute test compound 1:10 in TBS in 96-well polypropylene plates (ie. 10 μL compound+90 μL TBS).
10. Add 13.5 μL diluted test compound to ELISA plate.
13. After 5 minutes, stop reaction by adding 16.5 μL of 200 mM EDTA (pH 8.0) to each well, shaking continuously. After the EDTA has been added, shake for 1 mm.
as §2, §3, §4
22. Read assay on Dynatech MR7000 ELISA reader. Test Filter: 410 nM Reference Filter: 630 Nm.

[1] = Table 5, in vitro kinase activity, read-out: PDGFr biochem IC50
[2] = Table 5, in vitro kinase activity, read-out: EGFr biochem IC50
[3] = Table 4, in vitro kinase activity, read-out: bio PDGFr IC50
[4] = Table 4, in vitro kinase activity, read-out: bio EGFr IC50
[5] = Table 7, in vitro kinase activity, read-out: EGFr biochem IC50

IC50 (Her2; Table 5) [µM]	IC50 (PDGFR; [1]) [µM]	IC50 (EGFR; [2]) [µM]	IC50 (Her2; Table 4) [µM]	IC50 (PDGFR; [3]) [µM]	IC50 (EGFR; [4]) [µM]	SMILES	also measured
			71	0.52	> 100	Cc1[nH]c(C=C2C(=O)Nc3cc(-c4cccs4)ccc32)c(C)c1CCCN(C)C [AHI-8, 3-[4-(3-Dimethylaminopropyl)-3,5-dimethyl-1H-pyrrol-2-ylmethylene]-6-thiophen-2-yl-1,3-dihydroindol-2-one]	
			31.5	49.9	> 100	O=C1Nc2cc(-c3cccnc3)ccc2C1=Cc1ccccc1O [AHI-2, 3-(2-Hydroxybenzylidene)-6-pyridin-3-yl-1,3-dihydroindol-2-one]	
			57.3	76.6	> 100	O=C1Nc2cc(-c3ccsc3)ccc2C1=Cc1ccccc1O [AHI-6, 3-(2-Hydroxybenzylidene)-6-thiophen-3-yl-1,3-dihydroindol-2-one]	
			> 100	> 100	> 100	COc1ccc(C=C2C(=O)Nc3cc(-c4ccsc4)ccc32)cc1-c1cccs1 [AHI-5, 3-(4-Methoxy-3-thiophen-2-yl-benzylidene)-6-thiophen-3-yl-1,3-dihydroindol-2-one]	
			16.8	0.02	12.1	Cc1[nH]c(C=C2C(=O)Nc3cc(-c4cccnc4)ccc32)c(C)c1CCCN(C)C [AHI-7, 3-[4-(3-Dimethylaminopropyl)-3,5-dimethyl-1H-pyrrol-2-ylmethylene]-6-pyridin-3-yl-1,3-dihydroindol-2-one]	
			> 100	> 100	> 100	O=C1Nc2cc(-c3cccs3)ccc2C1=Cc1ccccc1O [AHI-4, 3-(2-Hydroxybenzylidene)-6-thiophen-2-yl-1,3-dihydroindol-2-one]	
			> 100	> 100	> 100	COc1ccc(C=C2C(=O)Nc3cc(-c4cccs4)ccc32)cc1-c1cccs1 [AHI-3, 3-(4-Methoxy-3-thiophen-2-yl-benzylidene)-6-thiophen-2-yl-1,3-dihydroindol-2-one]	

Second part, the compound before the results:

SMILES	IC50 (Her2; Table 5) [µM]	IC50 (PDGFR; [1]) [µM]	IC50 (EGFR; [2]) [µM]	IC50 (Her2; Table 4) [µM]	IC50 (PDGFR; [3]) [µM]	IC50 (EGFR; [4]) [µM]	also measured
O=C1Nc2cccc(CCO)c2C1Cc1ccc(Br)cc1 (stereo not drawn) [AAI-14, 3-(4-Bromobenzyl)-4-(2-hydroxyethyl)-1,3-dihydroindol-2-one]	> 100	> 100	> 100				
COc1ccc(-c2cc(CC3C(=O)Nc4ccccc43)c(O)cc2OC)cc1 (stereo not drawn) [AAI-4, 3-(4-Hydroxy-6,4′-dimethoxybiphenyl-3-ylmethyl)-1,3-dihydroindol-2-one]	> 100	> 100	> 100				
CC(C)NC(=O)OCCc1cccc2c1CC(=O)N2 [IN-025, Isopropyl-carbamic acid 2-(2-oxo-2,3-dihydro-1H-indol-4-yl)-ethyl ester]							IC50 (Her2; Table 7): 3.9 µM; IC50 (PDGFR; Table 7, in vitro kinase activity, read-out: PDGFr biochem IC50): 70.8 µM; IC50 (EGFR; [5]): > 100 µM
COCCc1cccc2c1CC(=O)N2 [IN-018, 4-(2-Methoxy-ethyl)-1,3-dihydro-indol-2-one]							IC50 (Her2; Table 7): > 100 µM; IC50 (EGFR; [5]): > 100 µM
O=C1Cc2c(CCOc3cncc(Cl)c3)cccc2N1 [IN-021, 4-[2-(5-Chloro-pyridin-3-yloxy)-ethyl]1,3-dihydro-indol-2-one]							IC50 (Her2; Table 7): > 100 µM; IC50 (EGFR; [5]): > 100 µM
COc1ccc(C=C2C(=O)Nc3cc(-c4cccnc4)ccc32)cc1-c1cccs1 [AHI-1, 3-(4-Methoxy-3-thiophen-2-yl-benzylidene)-6-pyridin-3-yl-1,3-dihydroindol-2-one]				> 100	> 100	> 100	
O=C1Nc2cc(-c3ccccc3)ccc2C1Cc1cc(Br)ccc1O (stereo not drawn) [AAI-26, 3-(5-Bromo-2-hydroxybenzyl)-6-phenyl-1,3-dihydroindol-2-one]	67.6	> 100	> 100				
O=C(Nc1ccc2c(c1)NC(=O)C2Cc1cc(Cl)cc(Cl)c1O)C1CCCC1 (stereo not drawn) [AAI-2, Cyclopentanecarboxylic Acid [3-(3,5-Dichloro-2-hydroxybenzyl)-2-oxo-2,3-dihydro-1H-indol-6-yl]-amide]	50.5	> 100	> 100				
Cc1[nH]c(CC2C(=O)Nc3ccc(Br)cc32)c(C)c1CCCN(C)C (stereo not drawn) [AAI-19, 5-Bromo-3-[4-(3-dimethylaminopropyl)-3,5-dimethyl-1H-pyrrol-2-ylmethyl]-1,3-dihydroindol-2-one]	> 100	0.25	> 100				
COc1ccc2c(c1)NC(=O)C2Cc1ccc(OC)c(-c2ccsc2)c1 (stereo not drawn) [AAI-1, 6-Methoxy-3-(4-methoxy-3-thiophen-3-ylbenzyl)-1,3-dihydroindol-2-one]	> 100	> 100	> 100				
CC(C)c1cc(CC2C(=O)Nc3ccc(Cl)cc32)cc(C(C)C)c1OCCN1CCOCC1 (stereo not drawn) [AAI-15, 5-Chloro-3-[3,5-diisopropyl-4-(2-morpholin-4-ylethoxy)-benzyl]-1,3-dihydroindol-2-one]	> 100	> 100	> 100				
O=C(Nc1ccc2c(c1)NC(=O)C2Cc1cc(Cl)ccc1O)C1CCCC1 (stereo not drawn) [AAI-3, Cyclopentanecarboxylic Acid [3-(5-Chloro-2-hydroxybenzyl)-2-oxo-2,3-dihydro-1H-indol-6-yl]-amide]	> 100	> 100	> 100				
CC(C)(C)c1cc(CC2C(=O)Nc3ccc(Cl)cc32)cc(Br)c1O (racemic) [AAI-28, 3-(3-Bromo-5-tert-butyl-4-hydroxybenzyl)-5-chloro-1,3-dihydroindol-2-one]	48	> 100	> 100				
CCOCCc1cccc2c1CC(=O)N2 [IN-019, 4-(2-Ethoxy-ethyl)-1,3-dihydro-indol-2-one]							IC50 (Her2; Table 7): > 100 µM; IC50 (EGFR; [5]): > 100 µM
